Assays:
[1] = tested on: amyotrophic lateral sclerosis; details: 2 mg/day; cited from earlier work
[2] = preclinical animal pharmacology, toxicology and pharmacokinetic studies; format: in vivo, animals
[3] = Phase I clinical trials on healthy volunteers; format: in vivo
CACO-2 monolayer = format: in vitro ADME
Method: A study concerning the determination of the in vitro absorption of SR 57746 A as a micronized form I/III mixture was carried out using the CACO-2 monolayer model. This test, which is widely used as a predictive intestinal epithelial model for drug absorption (P. Artusson, Crit. Rev. Ther. Drug, 1991, 8: 305-330), made it possible to show significant differences in terms of dissolution and permeability between SR 57746 A as a micronized form I/III mixture and the SR 57746 A obtained according to EP 0 101 381.

| SMILES | clinical outcome in amyotrophic lateral sclerosis patients [1] | pharmacokinetic studies on animals ([2]; animals) | activity and behavior in animal pharmacology and toxicology tests ([2]; preclinical trials) | variability in the pharmacodynamic effects [3] | variability in the plasma concentrations [3] | dissolution and permeability after micronization (CACO-2 monolayer) | rates of dissolution and permeability, compared between the two materials (CACO-2 monolayer) |
| --- | --- | --- | --- | --- | --- | --- | --- |
| Cl.FC(F)(F)c1cccc(C2=CCN(CCc3ccc4ccccc4c3)CC2)c1 [SR 57746 A, 1-[2-(2-naphthyl)ethyl]-4-(3-trifluoromethylphenyl)-1,2,3,6-tetrahydropyridine hydrochloride] | proved promising | constant and reproducible results | constant activity and behavior | high variability | high variability |  |  |
| Cl.FC(F)(F)c1cccc(C2=CCN(CCc3ccc4ccccc4c3)CC2)c1 [1-[2-(2-naphthyl)ethyl]-4-(3-trifluoromethylphenyl)-1,2,3,6-tetrahydropyridine hydrochloride] |  |  |  |  |  | normalized | significantly different |

Reference: US6489334B2, “Method for the crystallization of a tetrahydropyridin derivative and resulting crystalline forms” (Sanofi-Synthelabo, priority 1996, dated 2002)
